In patent US9476099B2 (TRUSTEES OF DARTMOUTH COLLEGE, priority 2012, dated 2016):

Test system: NT2/D1-R1 control and DNMT3B knockdown cells
Test: Genome-wide expression analysis with PAM clusters, control and DNMT3B knockdown cells (Tables 8-14)
Settings: sh-3B + aza, NT2/D1-R1 DNMT3B knockdown, decitabine 10 nM 3 days

Nc1ncn([C@H]2C[C@H](O)[C@@H](CO)O2)c(=O)n1 [aza]
ACSS2 (NM_0010765) gene expression, Mean: 406.693
ADCK1 (NM_020421) gene expression, Mean: 305.179
ADCY1 (NM_021116) gene expression, Mean: 138.949
AGAP1 (NM_014914) gene expression, Mean: 225.72
AK056312 gene expression, Mean: 471.555
ANKRD9 (NM_152326) gene expression, Mean: 896.077
APEH (NM_001640) gene expression, Mean: 1236.16
APP (NM_201414) gene expression, Mean: 393.758
C1orf115 (NM_024709) gene expression, Mean: 380.885
C2orf34 (NM_024766) gene expression, Mean: 286.591
C7orf47 (NM_145030) gene expression, Mean: 749.147
C16orf35 (NM_0010394) gene expression, Mean: 464.104
CA4 (NM_000717) gene expression, Mean: 1313.05
CACNA2D2 (NM_006030) gene expression, Mean: 398.095
CD24 (NM_013230) gene expression, Mean: 4095.34
CD248 (NM_020404) gene expression, Mean: 166.587
CDC42EP5 (NM_145057) gene expression, Mean: 232.63
CDH3 (NM_001793) gene expression, Mean: 1031.14
CEBPB (NM_005194) gene expression, Mean: 886.982
CHST13 (NM_152889) gene expression, Mean: 184.993
CLASP1 (NM_015282) gene expression, Mean: 448.757
CLIP2 (NM_032421) gene expression, Mean: 216.273
COMMD1 (NM_152516) gene expression, Mean: 327.95
COMMD7 (NM_0010993) gene expression, Mean: 1236.98
CRMP1 (NM_0010148) gene expression, Mean: 628.721
CTNNBIP1 (NM_020248) gene expression, Mean: 181.632
CXCL16 (NM_022059) gene expression, Mean: 276.818
CYP2F1 (NM_000774) gene expression, Mean: 134.435
CYP2S1 (NM_030622) gene expression, Mean: 1003.81
DBC1 (NM_014618) gene expression, Mean: 313.757
DDIT4 (NM_019058) gene expression, Mean: 558.55
DGKQ (NM_001347) gene expression, Mean: 236.075
DLL3 (NM_016941) gene expression, Mean: 150.963
DPYSL3 (NM_001387) gene expression, Mean: 841.778
DYM (NM_017653) gene expression, Mean: 332.811
DYSF (NM_003494) gene expression, Mean: 345.371
EPHA1 (NM_005232) gene expression, Mean: 886.512
EVI5L (NM_145245) gene expression, Mean: 248.688
EVL (NM_016337) gene expression, Mean: 840.767
EXTL3 (NM_001440) gene expression, Mean: 869.111
F11R (NM_016946) gene expression, Mean: 218.843
FAF1 (NM_007051) gene expression, Mean: 266.415
FAM125A (NM_138401) gene expression, Mean: 558.795
FAM127A (NM_0010781) gene expression, Mean: 1016.07
FCGBP (NM_003890) gene expression, Mean: 279.685
FDFT1 (NM_004462) gene expression, Mean: 705.216
FIGNL2 (NM_0010136) gene expression, Mean: 289.159
FLNB (NM_001457) gene expression, Mean: 960.275
FOXN3 (NM_005197) gene expression, Mean: 518.292
GAL (NM_015973) gene expression, Mean: 1768.85
GAS7 (NM_201433) gene expression, Mean: 308.927
GLG1 (NM_012201) gene expression, Mean: 913.909
GRAMD1A (NM_020895) gene expression, Mean: 607.142
GTF3C1 (NM_001520) gene expression, Mean: 626.338
HCFC1R1 (NM_0010020) gene expression, Mean: 798.561
HESX1 (NM_003865) gene expression, Mean: 379.045
HINT2 (NM_032593) gene expression, Mean: 706.883
HIST3H2A (NM_033445) gene expression, Mean: 282.379
HIST4H4 (NM_003541) gene expression, Mean: 314.561
HK1 (NM_033500) gene expression, Mean: 4205.36
IDH1 (NM_005896) gene expression, Mean: 1445.11
IL21R (NM_181078) gene expression, Mean: 161.219
JPH3 (NM_020655) gene expression, Mean: 214.843
KIF1A (NM_004321) gene expression, Mean: 150.02
KIF1B (NM_015074) gene expression, Mean: 393.388
LDB2 (NM_001290) gene expression, Mean: 259.706
LDOC1 (NM_012317) gene expression, Mean: 881.126
LHFPL4 (NM_198560) gene expression, Mean: 515.175
LONP1 (NM_004793) gene expression, Mean: 1192.71
LPCAT3 (NM_005768) gene expression, Mean: 456.787
LRBA (NM_006726) gene expression, Mean: 267.501
LRRC33 (NM_198565) gene expression, Mean: 257.521
MAPK3 (NM_0010400) gene expression, Mean: 447.115
MAPKAP1 (NM_0010066) gene expression, Mean: 274.663
MED30 (NM_080651) gene expression, Mean: 707.11
MID1IP1 (NM_021242) gene expression, Mean: 1496.95
MKRN1 (NM_013446) gene expression, Mean: 3678.37
MSRB2 (NM_012228) gene expression, Mean: 698.39
MYO5C (NM_018728) gene expression, Mean: 203.184
NANOG (NM_024865) gene expression, Mean: 1405.64
NCOR2 (NM_006312) gene expression, Mean: 1205.94
NDUFS4 (NM_002495) gene expression, Mean: 375.498
NFE2L3 (NM_004289) gene expression, Mean: 395.959
NGFRAP1 (NM_206917) gene expression, Mean: 1522.67
NKX3-2 (NM_001189) gene expression, Mean: 358.543
NM_014745 gene expression, Mean: 246.953
NPAS1 (NM_002517) gene expression, Mean: 227.998
NPTX2 (NM_002523) gene expression, Mean: 279.223
ODZ3 (NM_0010804) gene expression, Mean: 220.124
P4HB (NM_000918) gene expression, Mean: 2039.07
PACSIN1 (NM_020804) gene expression, Mean: 268.257
PCDH19 (NM_020766) gene expression, Mean: 187.553
PCK2 (NM_0010180) gene expression, Mean: 126.174
PDZD4 (NM_032512) gene expression, Mean: 283.495
PEMT (NM_148172) gene expression, Mean: 1036.99
PEX14 (NM_004565) gene expression, Mean: 423.992
PGM1 (NM_002633) gene expression, Mean: 3256.12
PHC1 (NM_004426) gene expression, Mean: 2226.1
PIM2 (NM_006875) gene expression, Mean: 2475.84
PITPNC1 (NM_181671) gene expression, Mean: 287.618
PNKP (NM_007254) gene expression, Mean: 570.846
PPAP2A (NM_176895) gene expression, Mean: 646.273
PPP1R1B (NM_181505) gene expression, Mean: 588.401
PQLC3 (NM_152391) gene expression, Mean: 307.634
PRSS8 (NM_002773) gene expression, Mean: 925.924
PSAT1 (NM_021154) gene expression, Mean: 2370.22
PTOV1 (NM_017432) gene expression, Mean: 1244.12
PTPLA (NM_014241) gene expression, Mean: 295.309
RAB3IP (NM_175624) gene expression, Mean: 976.727
RALY (NM_007367) gene expression, Mean: 1409.6
RASIP1 (NM_017805) gene expression, Mean: 236.587
RASL11B (NM_023940) gene expression, Mean: 570.022
RCN2 (NM_002902) gene expression, Mean: 957.657
REEP6 (NM_138393) gene expression, Mean: 581.805
RNF130 (NM_018434) gene expression, Mean: 258.36
ROD1 (NM_005156) gene expression, Mean: 1065.57
RPS6KA2 (NM_0010069) gene expression, Mean: 170.158
SAT1 (NM_002970) gene expression, Mean: 2411.02
SCARB1 (NM_005505) gene expression, Mean: 698.95
SCNN1A (NM_001038) gene expression, Mean: 2384.6
SEMA4B (NM_198925) gene expression, Mean: 455.134
SEMA4D (NM_006378) gene expression, Mean: 404.578
SEMA6B (NM_032108) gene expression, Mean: 327.203
SH2B3 (NM_005475) gene expression, Mean: 459.878
SLC3A2 (NM_0010132) gene expression, Mean: 701.201
SLC8A2 (NM_015063) gene expression, Mean: 221.546
SLC16A10 (NM_018593) gene expression, Mean: 222.7
SLC22A23 (NM_021945) gene expression, Mean: 371.628
SND1 (NM_014390) gene expression, Mean: 806.495
SOX2 (NM_003106) gene expression, Mean: 507.636
SPRY1 (NM_005841) gene expression, Mean: 278.849
SPSB2 (NM_032641) gene expression, Mean: 738.293
SRPX (NM_006307) gene expression, Mean: 221.585
SURF6 (NM_006753) gene expression, Mean: 1956.16
TBCD (NM_005993) gene expression, Mean: 565.581
TCEA2 (NM_198723) gene expression, Mean: 471.659
TCF7L1 (NM_031283) gene expression, Mean: 182.485
TIMP4 (NM_003256) gene expression, Mean: 657.953
TMC6 (NM_007267) gene expression, Mean: 426.897
TMEM145 (NM_173633) gene expression, Mean: 204.077
TPST2 (NM_0010085) gene expression, Mean: 683.535
TRAPPC9 (NM_031466) gene expression, Mean: 145.068
TSPAN9 (NM_006675) gene expression, Mean: 1493.67
TUBB4 (NM_006087) gene expression, Mean: 455.752
UBE2E2 (NM_152653) gene expression, Mean: 521.892
UNC84B (NM_015374) gene expression, Mean: 307.131
VCX2 (NM_016378) gene expression, Mean: 178.538
VCX3A (NM_016379) gene expression, Mean: 405.641
VCX3B (NM_0010018) gene expression, Mean: 466.812
VSNL1 (NM_003385) gene expression, Mean: 462.603
WDR8 (NM_017818) gene expression, Mean: 819.149
XBP1 (NM_0010795) gene expression, Mean: 860.839
XM_373896 gene expression, Mean: 451.855
XM_926633 gene expression, Mean: 6671.37
XM_932919 gene expression, Mean: 278.004
XM_933796 gene expression, Mean: 430.873
XM_943677 gene expression, Mean: 268.065
ZBTB46 (NM_025224) gene expression, Mean: 246.643
ZSWIM4 (NM_023072) gene expression, Mean: 558.806
HIST1H2BK (NM_080593) gene expression, Mean (first HIST1H2BK entry (r906)): 1161.66
TRPC4AP (NM_015638) gene expression, Mean (first TRPC4AP entry (r880)): 1093.15
HIST1H2BK (NM_080593) gene expression, Mean (second HIST1H2BK entry (r952)): 355.319
TRPC4AP (NM_015638) gene expression, Mean (second TRPC4AP entry (r892)): 1137.74
